Measurements: the NIST ThermoML archive (doi:10.1021/acs.jced.8b00975)

Assay: xn = mol fraction of the nth substance listed
Details: Liquid, Vibrating tube method

C=C(C)C(=O)OCCN(C)C [2-(dimethylamino)ethyl methylpropenoate] + CCCCCO
mass density [kg/m3]
Details	100 kPa	5000 kPa	10000 kPa	15000 kPa	20000 kPa	25000 kPa	30000 kPa	35000 kPa
293.15 K, x1 = 0.0299	821.4	824.97	828.31	831.49	834.52	837.46	840.35	843.21
293.15 K, x1 = 0.0601	827.36	830.88	834.21	837.36	840.4	843.36	846.28	849.21
293.15 K, x1 = 0.1006	834.83	838.39	841.73	844.91	847.96	850.92	853.82	856.7
293.15 K, x1 = 0.2011	851.81	855.36	858.7	861.88	864.94	867.91	870.84	873.77
293.15 K, x1 = 0.3004	866.6	870.17	873.54	876.75	879.84	882.84	885.78	888.7
293.15 K, x1 = 0.402	879.66	883.27	886.67	889.9	893.01	896.03	899.02	902
293.15 K, x1 = 0.4518	885.55	889.17	892.6	895.88	899.03	902.08	905.07	908.03
293.15 K, x1 = 0.5004	890.97	894.63	898.09	901.38	904.54	907.61	910.63	913.62
293.15 K, x1 = 0.5486	896.13	899.78	903.24	906.53	909.71	912.79	915.83	918.85
293.15 K, x1 = 0.601	901.42	905.08	908.55	911.86	915.05	918.14	921.18	924.2
293.15 K, x1 = 0.7021	910.74	914.43	917.91	921.22	924.41	927.53	930.63	933.76
293.15 K, x1 = 0.8019	918.94	922.6	926.1	929.46	932.72	935.91	939.06	942.19
293.15 K, x1 = 0.9008	926.27	929.96	933.48	936.87	940.15	943.35	946.5	949.63
293.15 K, x1 = 0.9306	928.32	932.04	935.56	938.93	942.19	945.38	948.54	951.72
293.15 K, x1 = 0.9645	930.63	934.34	937.87	941.25	944.51	947.7	950.84	953.97
303.15 K, x1 = 0.0307	814.24	818.14	821.74	825.07	828.2	831.19	834.07	836.92
303.15 K, x1 = 0.0604	819.89	823.73	827.29	830.63	833.79	836.81	839.72	842.58
303.15 K, x1 = 0.1009	827.11	830.9	834.46	837.81	841.01	844.07	847.03	849.93
303.15 K, x1 = 0.2025	843.87	847.62	851.18	854.56	857.79	860.91	863.93	866.88
303.15 K, x1 = 0.3	857.94	861.71	865.28	868.68	871.95	875.13	878.24	881.32
303.15 K, x1 = 0.3999	870.67	874.45	878.06	881.52	884.85	888.08	891.24	894.35
303.15 K, x1 = 0.4506	876.6	880.36	883.98	887.47	890.84	894.11	897.3	900.41
303.15 K, x1 = 0.5037	882.4	886.19	889.83	893.35	896.76	900.07	903.29	906.44
303.15 K, x1 = 0.5495	887.14	890.94	894.58	898.1	901.5	904.82	908.07	911.28
303.15 K, x1 = 0.6012	892.24	896.07	899.73	903.25	906.65	909.98	913.25	916.5
303.15 K, x1 = 0.7014	901.28	905.16	908.86	912.4	915.83	919.2	922.54	925.89
303.15 K, x1 = 0.8023	909.34	913.19	916.92	920.53	924.05	927.5	930.88	934.23
303.15 K, x1 = 0.9025	916.57	920.44	924.19	927.82	931.37	934.86	938.3	941.71
303.15 K, x1 = 0.9307	918.44	922.34	926.12	929.8	933.38	936.89	940.33	943.73
303.15 K, x1 = 0.9625	920.67	924.56	928.32	931.98	935.55	939.05	942.5	945.92
313.15 K, x1 = 0.0305	806.61	810.57	814.26	817.73	821.04	824.24	827.39	830.53
313.15 K, x1 = 0.0602	812.04	816	819.71	823.21	826.55	829.77	832.92	836.03
313.15 K, x1 = 0.1004	819.08	823.09	826.82	830.32	833.66	836.89	840.06	843.25
313.15 K, x1 = 0.2011	835.38	839.35	843.09	846.64	850.04	853.32	856.53	859.71
313.15 K, x1 = 0.2999	849.45	853.38	857.13	860.71	864.15	867.48	870.73	873.91
313.15 K, x1 = 0.4001	862.05	866.03	869.81	873.43	876.91	880.27	883.53	886.72
313.15 K, x1 = 0.4514	867.85	871.88	875.71	879.36	882.87	886.24	889.51	892.71
313.15 K, x1 = 0.498	872.93	876.96	880.8	884.47	888	891.4	894.7	897.93
313.15 K, x1 = 0.5495	878.17	882.25	886.12	889.81	893.35	896.76	900.07	903.31
313.15 K, x1 = 0.5984	882.9	887.01	890.9	894.6	898.15	901.58	904.91	908.18
313.15 K, x1 = 0.7004	892.03	896.09	900.01	903.79	907.43	910.93	914.29	917.51
313.15 K, x1 = 0.8001	900.15	904.24	908.18	911.97	915.62	919.14	922.52	925.76
313.15 K, x1 = 0.8995	907.42	911.49	915.45	919.28	922.99	926.57	930.03	933.36
313.15 K, x1 = 0.9328	909.62	913.75	917.76	921.63	925.35	928.93	932.36	935.63
313.15 K, x1 = 0.9616	911.53	915.62	919.61	923.5	927.26	930.88	934.33	937.6
